Among the data in patent publication US20240425454A1, “IONIZABLE CATIONIC COMPOUND” (SEQIRUS INC., priority 2021, published 2024) are pKa values, retold here.

Structures are written as SMILES.

This data set is described as follows: TNS fluorescence pKa protocol on saRNA-LNP. Type of data set: physicochemical. Conditions: saRNA-LNP containing the lipid, in a series of buffers; saRNA-LNP with the lipid; TNS 6 μM, pH 4 to 9.5, 25° C.; read-out: Apparent pKa. The method, then:
In a black 96-well plate, solutions of saRNA-LNP (final assay concentration 2 μg/mL total RNA) in a series of buffers ranging from pH 4 to 9.5 were prepared. Buffers between pH 4 to 7.6 were prepared from disodium phosphate and citric acid. Buffers from 7.8 to 9.5 were prepared by titrating tris buffer with 10 N sodium hydroxide. To each well was added 6-(p-Toluidino)-2-naphthalenesulfonic acid sodium salt (TNS) in water to a final assay concentration of 6 μM. The fluorescence was read on a plate reader at 25° C. with an excitation setting of 321 nm and an emission setting of 445 nm. The intensity values were plotted as a function of pH using GraphPad Prism and were fit with a sigmoidal dose response curve. The apparent pKa was determined as the EC50 of this curve where half of the ionizable amines are expected to be protonated (see FIG. 1).
Take `CCCCC(CCCC)OC(=O)CCCCCCCCC(CCCCCCCCC(=O)OC(CCCC)CCCC)OC(=O)CSC1CCN(C)CC1` [SL07]: the pKa (in general, the pH at which an ionisable group is half protonated) was 6.1.

Consider `CCCCC(CCCC)OC(=O)CCCCCCCCC(CCCCCCCCC(=O)OC(CCCC)CCCC)OC(=O)COC1CCN(CCCO)CC1` [SL12], for which the pKa was found to be 6.9.

Regarding `CCCCC(CCCC)OC(=O)CCCCCCCCC(CCCCCCCCC(=O)OC(CCCC)CCCC)OC(=O)CSCCN(CC)CC` [SL11], the pKa came out at 5.6.

As to `CCCCC(CCCC)OC(=O)CCCCCCCCC(CCCCCCCCC(=O)OC(CCCC)CCCC)OC(=O)CSCCN(C)C` [SL10], the pKa came out at 5.8.

Consider `CCCCC(CCCC)OC(=O)CCCCCCCCC(CCCCCCCCC(=O)OC(CCCC)CCCC)OC(=O)COCCN(C)C` [SL08], for which the pKa came to 7.

`CCCCC(CCCC)OC(=O)CCCCCCCCC(CCCCCCCCC(=O)OC(CCCC)CCCC)OC(=O)COC1CCN(C)CC1` [SL06]: the pKa was determined as 7.1.

On to `CCCCC(CCCC)OC(=O)CCCCCCCCC(CCCCCCCCC(=O)OC(CCCC)CCCC)OC(=O)COCCCN(C)C` [SL09], for which the pKa worked out at 7.1.
